Measured values taken from US20080220030A1, “Nanoparticles Comprising Chitosan and Cyclodextrin” (UNIVERSIDADE DE SANTIAGO DE COMPOSTELA, priority 2005, published 2008).
Values after ≈ are worked out from the molar mass of the structure shown. Each block holds one molecule with its values, some of them ahead of it.

Assays:
Type in all cases: physicochemical
[1] = Encapsulation efficiency and load of furosemide in nanoparticles (Example 8)
Excerpt: (§1) The encapsulation efficiency (EE) refers to the percentage of drug which is trapped in the chitosan-cyclodextrin system with respect to the quantity of drug added in the process of preparation of the nanoparticles. The drug load is indirectly determined from a calculation of the non-encapsulated drug which remains dissolved in the nanoparticles' suspension medium. The difference between this value and the theoretical drug content is taken to be the quantity of drug loaded in the nanoparticles. The drug load percentage which appears in the table is the percentage with respect to the quantity of encapsulated drug in 100 mg of nanoparticle.
The drug that was not dissolved by the cyclodextrin-polymer mixture was discarded during the filtration process (through 0.45 .m) which was conducted prior to crosslinking the polymer (see example 3). […]. […]

[2] = Solubility of triclosan in the initial chitosan-cyclodextrin solutions (Example 7); settings: aqueous with cosolvent or surfactant or cyclodextrin, thermodynamic from solid
Method: (§2) Nanoparticles of chitosan-cyclodextrin were obtained according to the method described in example 2, but adding a sufficient quantity of the drug triclosan to the initial solutions in order to oversaturate the solution. The drug that was not dissolved by the cyclodextrin-polymer mixture was discarded during the filtration process (through 0.45 .m) which was conducted prior to crosslinking the polymer by means of ionotropic crosslinking (see example 2). […] The triclosan was measured by means of a spectrophotometric method (.=280 nm).

[3] = Encapsulation efficiency and load of triclosan in nanoparticles (Example 7)
Method: as §2, §1

[4] = Dissolved triclosan in 80% water / 20% ethanol phase (Example 10)
Method: (§3) In a mixture of 80% water and 20% ethanol, solutions (3 ml) of chitosan (Protasan Cl110, 0.2%), HP.CD (0, 1.28 and 2.56 mM) and triclosan were prepared in a sufficient quantity to oversaturate the solution. These solutions were incubated for 24 h under magnetic stirring and, subsequently, filtered through a 0.45-.m filter and crosslinked by the addition of 1.2 ml of tripolyphosphate dissolved in a mixture of 80% water and 20% ethanol at a concentration of 1.25 mg/ml. The nanoparticles were isolated by centrifugation at 16000×g and resuspended in water. The size of the resulting particles and the polydispersion thereof were characterised by means of photon correlation spectroscopy (PCS). The quantity of encapsulated drug was determined by the degradation of an aliquot of the resuspended nanoparticles with the enzyme chitosanase (Chitosanase-RD, Pias Co, Japan), and the assessment was performed by means of spectrophotometry (.=280 nm).

[5] = Encapsulation efficiency and load of triclosan, chitosanase degradation (Example 10); settings: 80% water/20% ethanol
Method: as §3

[6] = type HPCD •, 25 mM (first 25 mM line)
[7] = type HPCD •, 25 mM (second 25 mM line)

furosemide EE ([1]; HPCD 0 mM): 22.3 ± 1.4%
load of furosemide ([1]; HPCD 0 mM): 0.23 ± 0.07%
furosemide EE ([1]; type HPCD •, 3.14 mM): 17.1 ± 3.0%
load of furosemide ([1]; type HPCD •, 3.14 mM): 0.89 ± 0.04%
furosemide EE ([1]; type HPCD •, 6.29 mM): 12.1 ± 1.3%
load of furosemide ([1]; type HPCD •, 6.29 mM): 1.43 ± 0.24%
furosemide EE [1, 6]: 7.2 ± 3.1%
load of furosemide [1, 6]: 2.39 ± 0.72%
furosemide EE [1, 7]: 8.8 ± 2.7%
load of furosemide [1, 7]: 1.92 ± 0.55%
SMILES: NS(=O)(=O)c1cc(C(=O)O)c(NCc2ccco2)cc1Cl [furosemide]

SMILES: Oc1cc(Cl)ccc1Oc1ccc(Cl)cc1Cl [triclosan]
solubility ([2]; HPCD 0 mM): 68 ± 17 µg/mL (≈ 235 µM)
solubility ([2]; type HPCD •, 3.14 mM): 211 ± 24 µg/mL (≈ 729 µM)
solubility ([2]; type HPCD •, 6.29 mM): 588 ± 18 µg/mL (≈ 2030 µM)
solubility [2, 6]: 1120 ± 13 µg/mL (≈ 3870 µM)
solubility [2, 7]: 870 ± 59 µg/mL (≈ 3000 µM)
triclosan EE ([3]; HPCD 0 mM): 12.5 ± 8%
triclosan load ([3]; HPCD 0 mM): 0.8 ± 0.3%
triclosan EE ([3]; type HPCD •, 3.14 mM): 5.2 ± 7%
triclosan load ([3]; type HPCD •, 3.14 mM): 1.1 ± 0.2%
triclosan EE ([3]; type HPCD •, 6.29 mM): 4.8 ± 3%
triclosan load ([3]; type HPCD •, 6.29 mM): 2.2 ± 0.1%
triclosan EE [3, 6]: 5.5 ± 5%
triclosan load [3, 6]: 3.1 ± 0.1%
triclosan EE [3, 7]: 4.6 ± 4%
triclosan load [3, 7]: 2.0 ± 0.1%
dissolved triclosan ([4]; HP•CD 0 mM): 719 ± 79 mg/L
dissolved triclosan ([4]; HP•CD 1.28 mM): 2536 ± 283 mg/L
dissolved triclosan ([4]; HP•CD 2.56 mM): 3521 ± 213 mg/L
load of triclosan ([5]; HP•CD 0 mM): 2.2 ± 0.9%
triclosan EE ([5]; HP•CD 0 mM): 22.3 ± 1.4%
load of triclosan ([5]; HP•CD 1.28 mM): 7.4 ± 1.3%
triclosan EE ([5]; HP•CD 1.28 mM): 37.7 ± 7.3%
load of triclosan ([5]; HP•CD 2.56 mM): 8.7 ± 0.2%
triclosan EE ([5]; HP•CD 2.56 mM): 33.5 ± 2.7%
